Measurements: PubChem BioAssay (NCI)
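The compound was tested at five concentrations on cells cultured in 96-well plates, with a 48-hour exposure period. TGI: total growth inhibition.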

Assays:
Assay in all cases: NCI-60 cell line screen, 48 h
OVCAR-8 ovarian = test system: OVCAR-8 ovarian
NCI-H23 lung = test system: NCI-H23 lung
UACC-257 melanoma = test system: UACC-257 melanoma
SR leukemia = test system: SR leukemia
SK-MEL-5 melanoma = test system: SK-MEL-5 melanoma
SNB-19 CNS = test system: SNB-19 CNS
A549 NSCLC = test system: A549 NSCLC
SNB-75 CNS = test system: SNB-75 CNS
M19-MEL melanoma = test system: M19-MEL melanoma
RXF 393 renal = test system: RXF 393 renal
K-562 leukemia = test system: K-562 leukemia
M14 melanoma = test system: M14 melanoma
OVCAR-3 ovarian = test system: OVCAR-3 ovarian
MOLT-4 leukemia = test system: MOLT-4 leukemia
SK-MEL-2 melanoma = test system: SK-MEL-2 melanoma
TK-10 renal = test system: TK-10 renal
OVCAR-5 ovarian = test system: OVCAR-5 ovarian
HCC-2998 colon = test system: HCC-2998 colon
LOX IMVI melanoma = test system: LOX IMVI melanoma
SNB-78 CNS = test system: SNB-78 CNS
LXFL 529 NSCLC = test system: LXFL 529 NSCLC
SW-620 colon = test system: SW-620 colon
ACHN renal = test system: ACHN renal
IGROV1 ovarian = test system: IGROV1 ovarian
OVCAR-4 ovarian = test system: OVCAR-4 ovarian
NCI-H460 lung = test system: NCI-H460 lung
SF-539 CNS = test system: SF-539 CNS
HL-60(TB) leukemia = test system: HL-60(TB) leukemia
COLO 205 colon = test system: COLO 205 colon
DMS 273 small cell lung = test system: DMS 273 small cell lung
EKVX NSCLC = test system: EKVX NSCLC
U251 CNS = test system: U251 CNS
CCRF-CEM leukemia = test system: CCRF-CEM leukemia
SK-MEL-28 melanoma = test system: SK-MEL-28 melanoma
DMS 114 small cell lung = test system: DMS 114 small cell lung
HOP-18 NSCLC = test system: HOP-18 NSCLC
SN12C renal = test system: SN12C renal
HCT-116 colon = test system: HCT-116 colon
HOP-92 NSCLC = test system: HOP-92 NSCLC
SF-268 CNS = test system: SF-268 CNS
UO-31 renal = test system: UO-31 renal
UACC-62 melanoma = test system: UACC-62 melanoma
HOP-62 NSCLC = test system: HOP-62 NSCLC
KM20L2 colon = test system: KM20L2 colon
HT29 colon = test system: HT29 colon
KM12 colon = test system: KM12 colon
HCT-15 colon = test system: HCT-15 colon
PC-3 prostate = test system: PC-3 prostate
HS 578T breast = test system: HS 578T breast
CAKI-1 renal = test system: CAKI-1 renal
T-47D breast = test system: T-47D breast
BT-549 breast = test system: BT-549 breast
MCF7 breast = test system: MCF7 breast
NCI/ADR-RES ovarian = test system: NCI/ADR-RES ovarian
SF-295 CNS = test system: SF-295 CNS
MDA-MB-231 breast = test system: MDA-MB-231 breast
MDA-MB-435 = test system: MDA-MB-435
786-0 renal = test system: 786-0 renal
SK-OV-3 ovarian = test system: SK-OV-3 ovarian
MDA-N = test system: MDA-N
NCI-H226 lung = test system: NCI-H226 lung
NCI-H522 lung = test system: NCI-H522 lung
DU-145 prostate = test system: DU-145 prostate
A498 renal = test system: A498 renal
MALME-3M melanoma = test system: MALME-3M melanoma
RPMI-8226 leukemia = test system: RPMI-8226 leukemia

CCCc1[nH]c(SCCCCCCCCSc2nc(-c3ccc(F)cc3)c(CCC)[nH]2)nc1-c1ccc(F)cc1
TGI (OVCAR-8 ovarian): > 100 µM | TGI (NCI-H23 lung): 30.6 µM | TGI (UACC-257 melanoma): > 100 µM | TGI (SR leukemia): > 100 µM | TGI (SK-MEL-5 melanoma): 67.1 µM | TGI (SNB-19 CNS): > 100 µM | TGI (A549 NSCLC): > 100 µM | TGI (SNB-75 CNS): 8.5 µM | TGI (M19-MEL melanoma): > 100 µM | TGI (RXF 393 renal): > 100 µM | TGI (K-562 leukemia): > 100 µM | TGI (M14 melanoma): > 100 µM | TGI (OVCAR-3 ovarian): 12.9 µM | TGI (MOLT-4 leukemia): > 100 µM | TGI (SK-MEL-2 melanoma): > 100 µM | TGI (TK-10 renal): > 100 µM | TGI (OVCAR-5 ovarian): > 100 µM | TGI (HCC-2998 colon): > 100 µM | TGI (LOX IMVI melanoma): > 100 µM | TGI (SNB-78 CNS): > 100 µM | TGI (LXFL 529 NSCLC): > 100 µM | TGI (SW-620 colon): > 100 µM | TGI (ACHN renal): > 100 µM | TGI (IGROV1 ovarian): > 100 µM | TGI (OVCAR-4 ovarian): 95.4 µM | TGI (NCI-H460 lung): > 100 µM | TGI (SF-539 CNS): 27.7 µM | TGI (HL-60(TB) leukemia): > 100 µM | TGI (COLO 205 colon): > 100 µM | TGI (DMS 273 small cell lung): > 100 µM | TGI (EKVX NSCLC): 52.5 µM | TGI (U251 CNS): > 100 µM | TGI (CCRF-CEM leukemia): > 100 µM | TGI (SK-MEL-28 melanoma): > 100 µM | TGI (DMS 114 small cell lung): > 100 µM | TGI (HOP-18 NSCLC): > 100 µM | TGI (SN12C renal): > 100 µM | TGI (HCT-116 colon): > 100 µM | TGI (HOP-92 NSCLC): 29.6 µM | TGI (SF-268 CNS): 16.9 µM | TGI (UO-31 renal): > 100 µM | TGI (UACC-62 melanoma): > 100 µM | TGI (HOP-62 NSCLC): > 100 µM | TGI (KM20L2 colon): > 100 µM | TGI (HT29 colon): > 100 µM | TGI (KM12 colon): > 100 µM | TGI (HCT-15 colon): > 100 µM

O=C1C=C2C(=NC34CCCCC3C(c3ccccc3)C3=C(c5ccccc5CC3)N24)c2ccccc21 (stereo not given)
TGI (OVCAR-8 ovarian): > 10 µM | TGI (NCI-H23 lung): > 10 µM | TGI (UACC-257 melanoma): > 10 µM | TGI (SR leukemia): > 10 µM | TGI (PC-3 prostate): > 10 µM | TGI (SK-MEL-5 melanoma): > 10 µM | TGI (HS 578T breast): > 10 µM | TGI (SNB-19 CNS): > 10 µM | TGI (A549 NSCLC): > 10 µM | TGI (CAKI-1 renal): > 10 µM | TGI (SNB-75 CNS): > 10 µM | TGI (RXF 393 renal): > 10 µM | TGI (K-562 leukemia): > 10 µM | TGI (T-47D breast): > 10 µM | TGI (M14 melanoma): > 10 µM | TGI (OVCAR-3 ovarian): > 10 µM | TGI (MOLT-4 leukemia): > 10 µM | TGI (SK-MEL-2 melanoma): > 10 µM | TGI (BT-549 breast): > 10 µM | TGI (MCF7 breast): > 10 µM | TGI (TK-10 renal): > 10 µM | TGI (OVCAR-5 ovarian): > 10 µM | TGI (HCC-2998 colon): > 10 µM | TGI (NCI/ADR-RES ovarian): > 10 µM | TGI (LOX IMVI melanoma): > 10 µM | TGI (SF-295 CNS): > 10 µM | TGI (SW-620 colon): > 10 µM | TGI (MDA-MB-231 breast): > 10 µM | TGI (ACHN renal): > 10 µM | TGI (IGROV1 ovarian): > 10 µM | TGI (OVCAR-4 ovarian): > 10 µM | TGI (NCI-H460 lung): > 10 µM | TGI (MDA-MB-435): > 10 µM | TGI (SF-539 CNS): > 10 µM | TGI (HL-60(TB) leukemia): > 10 µM | TGI (COLO 205 colon): > 10 µM | TGI (EKVX NSCLC): > 10 µM | TGI (U251 CNS): > 10 µM | TGI (CCRF-CEM leukemia): > 10 µM | TGI (SK-MEL-28 melanoma): > 10 µM | TGI (786-0 renal): > 10 µM | TGI (SN12C renal): > 10 µM | TGI (HCT-116 colon): > 10 µM | TGI (SK-OV-3 ovarian): > 10 µM | TGI (MDA-N): > 10 µM | TGI (NCI-H226 lung): > 10 µM | TGI (HOP-92 NSCLC): > 10 µM | TGI (NCI-H522 lung): > 10 µM | TGI (SF-268 CNS): > 10 µM | TGI (DU-145 prostate): > 10 µM | TGI (A498 renal): > 10 µM | TGI (MALME-3M melanoma): > 10 µM | TGI (RPMI-8226 leukemia): > 10 µM | TGI (UACC-62 melanoma): > 10 µM | TGI (HOP-62 NSCLC): > 10 µM | TGI (HT29 colon): > 10 µM | TGI (KM12 colon): > 10 µM | TGI (HCT-15 colon): > 10 µM
